{"source": "patent US10597398B2", "about": "“Suppression and regeneration promoting effect of low molecular weight compound on cancer and fibrosis” (NATIONAL UNIVERSITY CORPORATION TOTTORI UNIVERSITY, priority 2015, dated 2020)", "key": {"[1]": {"system": "CD44-expressing HSC2 cells", "assay": "CD44-expressing cells in HSC2 cells (cell sorter analysis)", "format": "cell-based, human", "conditions": "48 h, 25 μM IC-2 or 0.5 μM 5-FU, 83.9% without treatment", "experimental": "In addition, HSC2 cells were seeded at 5×10^5 cells/10-cm cell culture dish (TPP). After 24 h, the cells were treated with 0.5 μM of 5-FU or 25 μM of IC-2. Also prepared were cells without low-molecular-weight compound treatment (0 μM). After additional 48 h, the respective cells were harvested. As a primary antibody, used was a mouse anti-human CD44 antibody (Abcam Ltd., Cambridge, UK). Then, Alexa Fluor 488-labeled goat anti-mouse IgG (H+L) (Life Technologies Corp., Carlsbad, Calif.) was used. After that, a cell sorter BD bioscience FACS Aria (Becton, Dickinson and Company, Franklin Lakes, N.J.) was used for analysis."}, "[2]": {"system": "HSC2 cells (squamous cell carcinoma cells)", "assay": "Growth of squamous cell carcinoma cells (Cell Counting Kit-8)", "format": "cell-based", "conditions": "HSC2 cells, 0, 24, 72, 96 h", "experimental": "HSC2 cells (squamous cell carcinoma cells) were seeded at 2.5×10^3 cells/well of a 96-well plate (TPP Techno Plastic Products AG, Trasadingen, Switzerland). Next, 0, 24, 72, and 96 h after that, 100 μL of 10% Cell Counting Kit-8 (DOJINDO LABORATORIES, Kumamoto) was added. The mixture was incubated at 37° C. and its absorbance (at a measurement wavelength of 450 nm/control wavelength of 600 nm) was measured by using a Sunrise Rainbow RC (Tecan Group Ltd., Mannedorf, Switzerland)."}, "[3]": {"assay": "Liver cancer model mouse, body weight", "format": "in vivo, mice", "conditions": "30 mg/kg 5-FU or 50 mg/kg IC-2 intraperitoneally every three days", "experimental": "CD44-positive HuH-7 cells were subcutaneously transplanted in mice. Next, the engrafted mice were divided into 3 groups (DMSO group: 5 mice; 5-FU group: 4 mice; and IC-2 group: 4 mice). Then, DMSO was added to prepare 30 mg/kg of 5-FU and 50 mg/kg of IC-2 such that each liquid volume was 100 μL; and 100% DMSO, a solvent for each drug, was used as a control sample. Subsequently, each drug was dosed intraperitoneally every three days. The body weight of each mouse and the long and short diameters of a tumor were measured every three days. The tumor volume was calculated by using the following equation: Tumor volume=Long diameter×(Short diameter)^2×0.5. The volume at Day 0 was used to normalize each tumor volume, and then a graph was created. To fully evaluate a 5-FU effect, the 5-FU dose was set to an amount 2 times the regular amount 15 mg/kg used in research articles. The concentration of IC-2 corresponding to a concentration at which Wnt/β-catenin signaling was inhibited in vitro was calculated. Then, the concentration was doubled to set an IC-2 dose."}, "[4]": {"system": "liver fibrosis", "assay": "Carbon tetrachloride-induced fibrosis model mouse (Sirius Red staining)", "format": "in vivo, C57BL/6 male mice", "conditions": "carbon tetrachloride 8 weeks, drug for last 4 weeks, IC-2 10.6 mg/kg i.p. 3 times a week, vs vehicle group", "experimental": "To induce anesthesia, 1-mL disposable syringe with a 27-G needle was used to intraperitoneally inject, into a mouse, 1 μL/g body weight of a systemic anesthetic somnopentyl (Kyoritsuseiyaku Corporation, Tokyo).\nThe liver tissue sample, as so resected, was fixed in 4% paraformaldehyde (Nacalai tesque, Kyoto) at room temperature for 16 h, embedded in paraffin, and sectioned with a microtome to prepare tissue sections, which were then stained by using a Picosirius Red Stain Kit (Polysciences Inc., Warrington, Pa.) in accordance with the attached protocol. After that, a BZ-9000 (KEYENCE CORPORATION, Osaka) was used to take 10 photographs of light-field enlarged images (100×) per tissue sample. The ratio of the red-stained fiber area to the total tissue area of each photographed image was quantified to calculate a fibrosis-positive area ratio.\nSeven-week-old C57BL/6 male mice (Japan SLC, Inc., Shizuoka) were subjected to 1-week preparatory rearing and healthy ones were then used. The mice were housed in animal cages at a room temperature of 22±1° C. and a humidity of 50±5% throughout the preparatory rearing and experimental period and were given ad libitum access to food and water.\nA microsyringe (ITO CORPORATION, Shizuoka) was used to intraperitoneally administer 0.2 ml/kg of carbon tetrachloride (CCl4; Wako Pure Chemical Industries, Ltd.) 3 times a week for 4, 6, or 8 weeks. […]"}}}
{"smiles": "O=C1C(Cc2ccccc2)N2C(=O)CCN(C(=O)NCc3ccccc3)C2CN1Cc1cccc2ccccc12", "note": "(stereo not shown) [IC-2]", "values": [{"measurement": "percentage of CD44-expressing cells", "setting": "[1]", "result": 71.4, "unit": "%"}, {"measurement": "growth inhibitory effect on squamous cell carcinoma cells", "setting": "[2]", "result": "exhibited a growth inhibitory effect"}, {"measurement": "body weight", "setting": "[3]", "result": "no change in the body weight"}, {"measurement": "fibrosis area (Sirius Red staining)", "setting": "[4]", "result": "decrease more than that of the vehicle group"}]}
